Measurements: US10058530B2, “Combination therapies for the treatment of Alzheimer's disease and related disorders” (The General Hospital Corporation, priority 2012, dated 2018)
Entries after “also recorded” stand apart in the source; their conditions may differ. Read-outs that look alike come from different tables or passages of the source.

Tests used:
Aβ fibril formation = settings: cited from earlier work
[1] = tested on: Alzheimer's disease patients; settings: Phase 2a; cited from earlier work
[2] = in vivo; cited from earlier work
AD patients = settings: some AD patients; Wettstein and Spiegel, 1985; cited from earlier work
Aβ peptide = experiment: Aβ aggregation by thioflavin T assay; assay type: biochemical; settings: for inhibition of Aβ amyloid peptide polymerization into oligomers and higher order aggregates: summary of four separate in vitro assays, nanomolar concentrations; for inhibition of Aβ aggregation, thioflavin fluorescence: nanomolar concentration
Procedure: One of the most routinely used approaches to monitor Aβ polymerization is the thioflavin T binding assay. […] Aβ peptide at 5 μM was mixed with 10 μM thioflavin T with drug at different concentrations.
(§1) One of the most routinely used approaches to monitor Aβ polymerization is the thioflavin T binding assay (Elmaleh, 2014; Hori, 2015). […] Aβ peptide at 5 μM was mixed with 10 μM thioflavin T with drug at different concentrations.
Fibrillization of synthetic Aβ40 (FIG. 12A, left column and FIG. 12B, left column) or Aβ42 (FIG. 12A, right column and FIG. 12B, right column) peptides was followed over 1 hour.

[3] = Brain concentration of PIB analog TS3124; settings: in vivo
Aβ oligomer = experiment: TBS soluble Aβ oligomer level in brain of APP/PS1 mice (IBL 82E1-82E1 oligomer ELISA); assay type: in vivo; settings: IP daily 7 days
From the text: (§2) The treatment was given by IP injection everyday for 7 days before sacrificing the mice and harvesting the brain. Brain extracts were quantified for the total amount of Aβ40, Aβ42 and Aβ oligomers.
FIG. 6 illustrates the measurement of TBS soluble Aβ oligomer level IBL oligomer ELISA (82E1-82E1). […] FIGS. 6B and 6C show the difference the experiments with Gdn and those without Gdn using Aβ WAKO ELISA. N=3 or 5 animals per group, average±SE. The p value is not significant using one-way ANOVA test (Bonferroni's test).

Aβ40 [4] = biological target: T1, Aβ40 (Homo sapiens, UniProt P05067); experiment: Thioflavin T fibrillization assay, synthetic Aβ40; assay type: biochemical; design: host or cells: synthetic peptide; settings: 5 nM, 50 nM and 500 nM; followed over 1 hour
T1 sequence (P05067 672-711 limits assumed): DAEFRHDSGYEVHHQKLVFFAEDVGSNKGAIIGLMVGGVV
Procedure: as §1
(§3) Fibrillization of synthetic Aβ40 (FIG. 12A, left column and FIG. 12B, left column) or Aβ42 (FIG. 12A, right column and FIG. 12B, right column) peptides was followed over 1 hour. The corresponding Vmax index (milli-units/minute) is indicated on each graph.

Aβ42 [5] = biological target: T2, Aβ42 (Homo sapiens, UniProt P05067); experiment: TBS soluble Aβ42 level in brain of APP/PS1 mice by WAKO ELISA; assay type: in vivo; design: from tissue; host or cells: brain TBS-soluble extract of APP/PS1 transgenic mice; settings: two higher doses (2.1 mg/kg and 3.15 mg/kg), IP daily 7 days
T2 sequence (P05067 672-713 limits assumed): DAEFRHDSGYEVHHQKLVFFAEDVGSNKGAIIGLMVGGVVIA
From the text: as §2
(§4) FIG. 5 illustrates the measurement of TBS soluble Aβ level by WAKO ELISA. […] As indicated, the number of animals per group is N=3 or 5, average±SE. The p value is significant using one-way ANOVA test (Bonferroni's test).

[6] = inhalation studies, Beach et al. 1981; cited from earlier work
Aβ40 [7] = biological target: T1, Aβ40; experiment: TBS soluble Aβ40 level in brain of APP/PS1 mice by WAKO ELISA; assay type: in vivo; design: from tissue; host or cells: brain TBS-soluble extract of APP/PS1 transgenic mice; settings: two higher doses (2.1 mg/kg and 3.15 mg/kg), IP daily 7 days
From the text: as §2, §4

[8] = tested on: microglia (Iba1) around amyloid deposits; experiment: Immunostaining of Aβ and microglial marker Iba1 in brain sections of APP/PS1 mice; assay type: in vivo; settings: 3.15 mg/kg daily for seven days, vs PBS
Abeta (1-40) peptides = Abeta (1-40) peptides (Homo sapiens, UniProt P05067); experiment: UV aggregation assay; assay type: biochemical
Sequence of Abeta (1-40) peptides (P05067 672-711 limits assumed): as the sequence (P05067 672-711 limits assumed) above
Procedure: Abeta peptide aggregation and the impact of drugs to slow or prevent Abeta aggregation was measured by a UV absorbance assay (Findeis, 1999). Abeta (1-40) peptides, at 50 μM, were mixed with 50 μM drug in assay buffer and the plate was incubated at ambient temperature on a plate reader. The UV absorbance was monitored at 540 nm over a 2-3 h period.
Polymerization of Aβ-monomer peptides into clusters of trimers and tetramers initiates the Aβ aggregation process into protofibrils and then into fibrils that form amyloid plaques.

Aβ42 [9] = biological target: T2, Aβ42; experiment: Thioflavin T fibrillization assay, synthetic Aβ42; assay type: biochemical; design: host or cells: synthetic peptide; settings: 5 nM, 50 nM and 500 nM; followed over 1 hour; smaller effects than on Aβ40
Procedure: as §1, §3

TBS soluble Aβ = TBS soluble Aβ level in brain of APP/PS1 mice by WAKO ELISA; assay type: in vivo
From the text: as §2, §4

microglial cells = experiment: Aβ uptake by cultured microglial cells; assay type: cell-based; settings: 0, 10 nM, 10 μM or 1 mM, 16 hours
Procedure: After the incubation, the concentrations of […]-42 (right panel) in media were measured using Aβ ELISA and normalized with microglia cell number and according to the PBS control condition. (n=3 experiments; *, P<0.05, **, P<0.01)

[10] = J. Pharm. Sci. 92(6), 2003; cited from earlier work
[11] = human
clinical = settings: human, in vivo; for MRT: mean residence time in plasma
[12] = human lung, high inspiratory rates, dry powder inhaler; cited from earlier work
[13] = tested on: basal forebrain cholinergic neurons; settings: rats; cited from earlier work
cholinergic neurons = settings: aged rhesus monkeys; cited from earlier work

O=c1c(O)c(-c2ccc(O)c(O)c2)oc2ccccc12 [3,3′,4′-Trihydroxyflavone, 3,3′,4′-Tri-hydroxyflavone]
Effects on Aβ fibril formation (Aβ fibril formation): Inhibitory

O=c1c(O)c(-c2cccc(O)c2)oc2cc(O)ccc12 [3,3′,7-Trihydroxyflavone, 3,3′,7-Tri-hydroxyflavone]
Effects on Aβ fibril formation (Aβ fibril formation): Enhancing

O=c1c(O)c(-c2ccc(O)cc2)oc2cc(O)ccc12 [3,4′,7-Trihydroxyflavone, 3,4′,7-Tri-hydroxyflavone]
Effects on Aβ fibril formation (Aβ fibril formation): Inhibitory

O=c1c(O)c(-c2ccc(O)cc2)oc2cc(O)ccc12 [5-Deoxykaempferol, 5-Deoxy-kaempferol]
Effects on Aβ fibril formation (Aβ fibril formation): Enhancing

O=c1cc(-c2ccccc2)oc2cc(O)cc(O)c12 [Chrysin]
Effects on Aβ fibril formation (Aβ fibril formation): Enhancing

O=c1c(O)c(-c2ccc(O)cc2)oc2cc(O)cc(O)c12 [Kaempferol]
Effects on Aβ fibril formation (Aβ fibril formation): Enhancing

O=c1cc(-c2ccc(O)c(O)c2)oc2cc(O)cc(O)c12 [Luteolin]
Effects on Aβ fibril formation (Aβ fibril formation): Inhibitory

O=c1c(O)c(-c2cc(O)c(O)c(O)c2)oc2cc(O)cc(O)c12 [Myricetin]
Effects on Aβ fibril formation (Aβ fibril formation): Inhibitory

O=c1c(O)c(-c2ccc(O)c(O)c2)oc2cc(O)cc(O)c12 [Quercetin]
Effects on Aβ fibril formation (Aβ fibril formation): Inhibitory

O=C(NC1CN2CCC1CC2)c1n[nH]c2ccccc12 (stereo not drawn) [R3487]
effect on multiple measures of cognition [1]: statistically significant effect

CCN1C(=O)CC2(CCN(C)CC2)C1=O [RS-86, 2-ethyl-8-methyl-2,8-diazospiro-4,5-decan-1,3-dione]
brain penetration [2]: low | cognitive function, mood and social behavior (AD patients): improves cognitive function, mood and social behavior

O=C([O-])c1cc(=O)c2c(OCC(F)COc3cccc4oc(C(=O)[O-])cc(=O)c34)cccc2o1.[Na+].[Na+] [TS734]
inhibition of Aβ amyloid peptide polymerization into oligomers and higher order aggregates (Aβ peptide): effectively inhibits

CC(F)CNc1ccc(-c2nc3ccc(O)cc3s2)cc1 (stereo not drawn) [TS3124]
brain concentration [3]: 4%

O=C([O-])c1cc(=O)c2c(OCC(O)COc3cccc4oc(C(=O)[O-])cc(=O)c34)cccc2o1.[Na+].[Na+] [cromolyn sodium]
Aβ oligomer level as difference with and without Gdn, WAKO ELISA (Aβ oligomer): not changed | Aβ40 fibrillization, Thioflavin T fluorescence (Aβ40 [4]): significantly decreased | decrease in the amount of Aβ42 (Aβ42 [5]): up to 50% | concentration at which Aβ peptide polymerization is inhibited (Aβ peptide): 5 nM | inhibition of Aβ aggregation, thioflavin fluorescence (Aβ peptide): inhibition of Aβ aggregation; also recorded: inhibiting effect | inhibition of Aβ aggregation, thioflavin fluorescence (Aβ peptide; listed as CO399): inhibition of Aβ aggregation | inhibition of Aβ amyloid peptide polymerization into oligomers and higher order aggregates (Aβ peptide): inhibits its polymerization into oligomers and higher order aggregates; also recorded: effectively inhibits | inhibition of Aβ amyloid peptide polymerization into oligomers and higher order aggregates (Aβ peptide; listed as cromolyn): effectively inhibits | pulmonary and cardiovascular (CV) function assessments [6]: no treatment effect | decrease in the amount of Aβ40 (Aβ40 [7]): up to 50% | percentage of Iba1 immunoreactivity overlapping with amyloid [8]: higher percentage of Iba1 immunoreactivity overlapping with amyloid | percentage of Iba1 immunoreactivity overlapping with amyloid ([8]; listed as Cromolyn Sodium): increased overlap between Aβ and Iba1 | inhibition of Aβ peptide polymerization (Abeta (1-40) peptides): 8 fold | inhibition of the rate of Aβ polymerization (Abeta (1-40) peptides; equimolar with Aβ (50 μM)): 7 fold | time to 50% polymerization (Abeta (1-40) peptides; equimolar with Aβ (50 μM), 14 minutes in absence of drug): 75 min | Aβ42 fibrillization, Thioflavin T fluorescence (Aβ42 [9]): significantly decreased | monomeric Aβ (Gdn−) (TBS soluble Aβ; APP/PS1 mice, IP daily 7 days, no guanidine): decease; also recorded: reduction | decrease of total soluble Aβ levels (TBS soluble Aβ; after 1 week of peripheral administration): over 50% | Aβ40 levels in media of microglia culture (microglial cells; 50 nM synthetic Aβ40): dose-dependent decrease | Aβ42 levels in media of microglia culture (microglial cells; 50 nM synthetic Aβ42): dose-dependent decrease | % PSA [10]: 44 | LogP [10]: 1.9 | PSA [10]: 189 | AUC (plasma) ([11]; 17.1 mg inhaled): 147.5±67.1 ng/mlxh | AUC (plasma), range ([11]; 17.1 mg inhaled): 44.7-287.0 ng/mlxh | maximum plasma concentration ([11]; 17.1 mg inhaled): 47.1 ± 33.6 ng/mL | maximum plasma concentration, range ([11]; 17.1 mg inhaled): 14.0 to 133 ng/mL | time of maximum plasma concentration ([11]; 17.1 mg inhaled): 23.3 ± 16.9 min | time of maximum plasma concentration, range ([11]; 17.1 mg inhaled): 5 to 60 min | AUC (plasma) ([11]; 34.2 mg inhaled (double dose)): 254.4±93.8 ng/mlxh | AUC (plasma), range ([11]; 34.2 mg inhaled (double dose)): 122.1-443.3 ng/mlxh | maximum plasma concentration ([11]; 34.2 mg inhaled (double dose)): 95.0 ± 45.5 ng/mL | maximum plasma concentration, range ([11]; 34.2 mg inhaled (double dose)): 36.1 to 236 ng/mL | time of maximum plasma concentration ([11]; 34.2 mg inhaled (double dose)): 22.2 ± 19.4 min | time of maximum plasma concentration, range ([11]; 34.2 mg inhaled (double dose)): 5 to 60 min | plasma concentration at 12 hours following inhalation ([11]; inhaled, expected): negligible | MRT (clinical; inhaled or intranasal, 17.1 mg, 17.1 mg inhaled): 3.3 ± 2.9 h | MRT (clinical; inhaled or intranasal, 17.1 mg, range, 17.1 mg inhaled): 0.79 to 12.1 h | MRT (clinical; inhaled or intranasal, 34.2 mg, 34.2 mg inhaled (double dose)): 2.8 ± 1 h | MRT (clinical; inhaled or intranasal, 34.2 mg, range, 34.2 mg inhaled (double dose)): 1 to 5.4 h | half-life (clinical; inhaled or intranasal, half-life of clearance from plasma, inhaled): 1.75 ± 0.9 h | half-life (clinical; inhaled or intranasal, half-life of clearance from plasma, range, inhaled): 0.5 to 3.7 h | half-life (clinical; plasma half-life corresponding to mean residence time, 17.1 mg inhaled): ~2.3 h | inhaled drug-delivered-dose absorbed into the bloodstream [12]: 10-15%

Fisetin
Effects on Aβ fibril formation (Aβ fibril formation): Inhibitory

NGF: nerve growth factor; CERE-110 is NGF gene therapy
age-related behavioral decline [13]: reversed age-related behavioral decline | cholinergic neuron cell death [13]: prevented cholinergic neuron cell death | cholinergic axonal density (cholinergic neurons): restores cholinergic axonal density in aged monkeys to levels observed in young monkeys | cholinergic neuron atrophy (cholinergic neurons): ameliorates cholinergic neuron atrophy
